For the assay, the system named is healthy donor PBMCs. In words: IFNγ ELISpot assay with peptide-stimulated healthy donor PBMCs. It is filed as cell-based, human. The conditions noted are these: for ELISPOT positive: only neoAgs marked Tested with ELISPOT; for ELISpot result (positive response) for peptides tested with ELISpot / ELISpot IFNγ reactivity (immunogenicity) of individual peptides: healthy donor PBMCs; for ELISpot IFNγ reactivity (immunogenicity) of individual peptides: compared to unexposed control cells. The protocol: FIG. 10A-D. In vitro validation of predicted neoAgs immunogenicity using ELISpot IFNy assay. A) Schematic of peptide pool, stimulation, and cell culture workflow for ELISpot assays. PBMCs were exposed with the individual peptides from the immunogenic pools in the presence of IL-7 for 3 d, followed by expansion of neoAg-specific T cells in the presence of IL-2. On day 13, expanded cells (10^5 cells per well) were plated onto 96-well ELISpot plate coated with an IFNγ antibody and re-stimulated with the respective peptide for 24 h. IFNy secreting cells were analyzed as spot-forming units (SFUs), and the inventors chose ≥15 SFU produced by peptide stimulated cells over DMSO control cells as an indicator of the peptide immunogenicity. B) Quantification of IFNγ-secreting cells (SFU) obtained from ELISpot assay of 12 neoAg-stimulated PBMCs. ConcA and DMSO served as positive and negative controls. […] C) Selection of 110 predicted MHC-I neoAgs from 3 different categories and percentage of immunogenicity in vitro validation. […] “Most Immunogenic” refers to neoAgs selected from the top 100 prediction list of Most Immunogenic MHC-I neoAgs. “Most recurrent” refers to neoAgs selected from the top 100 prediction list of Most Recurrent MHC-I neoAgs. “Others” refers neoAgs that were predicted to have low immunogenicity and no recurrency. A total of 44 MHC-II neoAgs from 2 different categories were tested. […] “Most Immunogenic” refers to neoAgs selected from the top 100 prediction list of Most Immunogenic MHC-II neoAgs. “Most recurrent” refers to neoAgs selected from the top 100 prediction list of Most Recurrent MHC-II neoAgs. D) pMHC-pentamer staining. Expanded Pan-T cells from the healthy human donor were isolated and stained with WDTC1 neoAg peptide/A*02:01 Pentameric complexes and PerCP-conjugated CD8 antibody followed by flow cytometry analysis. Pan T-cells from healthy human donor PBMC (HLA-A*02:01) were isolated using negative magnetic selection. Isolated Pan T cells were stimulated and expanded with Opto-antigen presenting beads conjugated with WDTC1 neoAg-peptide. Viable Pan-T cells were gated based on FSC and SSC scatter and SYTOX Blue dead cells staining after doublet-exclusion. Flow cytometric plots representing CD8 positive (x-axis) and PE-biotin-pMHC-pentamer positive (y-axis) cells; unstained, unstimulated, and WDTC1 Opto-antigen presenting beads stimulated cells (left to right). The percentage of live CD8+ cells and CD8/WDTC1 neoAg-loaded MHC pentamer positive cells are shown.
FIG. 19A-B. In vitro validation of the pooled predicted neoAgs immunogenicity using ELISpot IFNγ assay. A) Schematic of peptide pool, stimulation, and cell culture workflow for ELISpot assays. All 154 peptides were grouped into 15 peptide pools to stimulate PBMCs from 3 healthy human donors as shown in the illustrations. IFNy secreting cells were analyzed as spot-forming units (SFUs), indicative of immunogenicity. B) Quantification of IFNγ-secreting cells (SFU) obtained from ELISpot assay. Pools 2, 3, 5, 6, 9, and 12 produced at least 15 or higher SFU/10^5 cells from two different PBMCs. […] ConcA and DMSO served as positive and negative controls.
Healthy donor PBMCs were stimulated with 15 peptide pools (Supplementary Table 13) to expand the neoAg-specific CD8^+ T-cells followed by quantitative ELISpot assays (FIG. 19A) to measure immunogenicity. […] To ascertain the immunogenicity of individual peptides within each immunogenic pool. a deconvolution protocol (see Methods) was implemented (FIG. 10A). […] Three percent of MHC-I neoAgs not predicted to be highly immunogenic or recurrent (Others). 5% of the top 100 most immunogenic MHC-II predicted neoags, and 6% of the top 100 most recurrent MHC-II predicted neoags elicited an immunogenic response as assessed by ELISpot assays. Additionally. 18% of all of these elispot-reactive neoags were also predicted from the validation set (FIG. 9C). […]

[1] abbreviates: IFNγ ELISpot, only peptides marked Tested.
The mark [2] stands for this setting: IFNγ ELISpot, peptides marked Tested.
[3] abbreviates: IFNγ ELISpot, peptide-stimulated healthy donor PBMCs, peptides grouped in 15 pools.
The mark [4] stands for this setting: IFNγ ELISpot, peptide-stimulated healthy donor PBMCs.
The mark [5] stands for this setting: IFNγ secretion in healthy donor PBMCs vs unexposed control cells.

We go through 69 substances from US20240218019A1, “METHODS AND COMPOSITIONS COMPRISING MHC CLASS I PEPTIDES” (BOARD OF REGENTS, THE UNIVERSITY OF TEXAS SYSTEM, priority 2021, published 2024).

Entries after “also recorded” stand apart in the source; their conditions may differ.

With 112 (FLALNQLPQV) [compound 112], the “ELISPOT positive” value is “No”.
Consider 218 (RWMVLRNSWRAVARM) [compound 218], for which the Elispot reactive result under setting [1] is given as “No”.
On the same count and under the same terms, under 219 (IDNIKRNHNLALGRQ) [compound 219] stands “No”.
Still for that read-out and setting: under 220 (PKMQVTITLTSPIIR) [compound 220] stands “No”; under 222 (KTGLQLLRNHIEELK) [compound 222], “No”.
In the case of 223 (QKKLMLLRLNLRKMC) [compound 223], the “ELISpot result (positive response) for peptides tested with ELISpot” value (“ELISpot result (positive response)” for short) (IFNγ ELISpot) is on record as “No”. Moreover, the Elispot reactive entry under setting [1] is “No”.
For the substance 224 (LINIHHRKNPLLPMR) [compound 224], the Elispot reactive result under setting [1] is recorded as “No”.
Same read-out and setting: under 227 (EDIEFHFSLGWTMLV) [compound 227] stands “No”.
For the substance 229 (PALLLAEATHKASAL) [compound 229], the Elispot reactive result by setting is: under setting [1], “No”; under setting [2], “No”.
Regarding 230 (SLDNVLRTMLRRFAR) [compound 230], the Elispot reactive entry under setting [1] was “No”.
Still for that read-out and setting: for 231 (YLRFIKSLAERTMSV) [compound 231] the value was “No”.
Turning to 233 (RHVIKVLLGRKVNWH) [compound 233], the Elispot reactive entry is “No” under setting [1] and “No” under setting [2].
234 (QLARFFPITPPVWHI) [compound 234]: the Elispot reactive entry runs as follows: under setting [1], “No”; under setting [2], “No”.
For 236 (FEEIIKNDGALLKKK) [compound 236], the Elispot reactive entry under setting [1] is “No”.
Still for that read-out and setting: under 238 (TKFITYRSKKLIQES) [compound 238] stands “No”.
For the substance 239 (LEVMLLNMGYRITGL) [compound 239], the Elispot reactive entry reads like this: under setting [1], “No”; under setting [2], “No”.
Turning to 240 (SINVLCVRASLIEKL) [compound 240], the “ELISpot result (positive response)” value (IFNγ ELISpot) is recorded as “No”. Moreover, the Elispot reactive result under setting [1] is on record as “No”.
As to 250 (TVEMRRWWTLVMEWK) [compound 250], the Elispot reactive entry under setting [2] was “No”.
Turning to 290 (ANRYFSPNFKVKLYF) [compound 290], the “ELISpot result (positive response)” value (IFNγ ELISpot) is “No”.
On to 311 (KSLVRLSSCVPVALM) [compound 311], for which the Elispot reactive entry under setting [2] is recorded as “No”. In addition, the “ELISpot result (positive yes/no)” value (peptides marked Tested with ELISpot) is given as “No”.
Turning to 318 (LRGGVIQSTRRRRRA) [compound 318], the Elispot reactive result under setting [2] is “No”.
Regarding 319 (PCASLLSTLSQPPPQ) [compound 319], the Elispot reactive entry under setting [2] is listed as “No”.
Same read-out and setting: under 320 (EDMQEVVVHKKRGLF) [compound 320] stands “No”; under 321 (RFPLLMMWRTPMTTR) [compound 321], “No”; under 322 (PVLFKADQSESSLSS) [compound 322], “No”.
On the same count and under the same terms, under 324 (FGILNVLEFSSDRKK) [compound 324] stands “No”; under 325 (ILVALSWMGGLHSFY) [compound 325], “No”.
On the same count and under the same terms, for 328 (LLHWRIGGGTPLSIS) [compound 328] the value was “No”; for 329 (EIQLTMNDSKHKLES) [compound 329], “No”; for 332 (GVRILKLCSKVSFRV) [compound 332], “No”.
334 (ALGLRILPPPLTSPS) [compound 334]: the Elispot reactive result under setting [2] is on record as “No”.
Still for that read-out and setting: under 335 (KKSVLKAIEQADLLQ) [compound 335] stands “No”; under 336 (KEALFLQEVFQAERL) [compound 336], “No”.
354 (PVTPLRVQSVLLLGV) [compound 354]: under “IFNγ ELISpot”, the “ELISpot result (positive response)” value was “No”.
Consider 507 (VVHKKRGL) [compound 507], for which, under “IFNγ ELISpot, only peptides marked Elispot tested = Yes”, the Elispot reactive result is “No”.
In the case of AGIGWGASY, the Elispot reactive entry under setting [3] is “yes”.
Consider AGIGWGASY [compound 160], for which the “ELISPOT result (positive Yes/No) for peptides marked Tested” value under setting [4] is “Yes”. Moreover, the Elispot reactive result under setting [5] was “Yes”.
As to AMAENILAA [compound 150], the “ELISPOT result (positive Yes/No) for peptides marked Tested” value under setting [4] is “No”.
For the substance APREGAAATPL [compound 18], the Elispot reactive entry under setting [1] is recorded as “No”.
As for APSLTPMHSL [compound 209], the Elispot reactive entry (IFNγ ELISpot, peptide tested) was “No”.
On to ASLAHSDNF [compound 106], for which the “ELISPOT positive” value was “No”. Also, the “ELISPOT result (positive Yes/No) for peptides marked Tested” value under setting [4] is reported as “No”.
Turning to ATLVTPPTRY [compound 166], the “ELISPOT result (positive Yes/No) for peptides marked Tested” value under setting [4] was “No”.
The same measure, in the same setting: under CRREYRVTM [compound 135] stands “No”.
With ELLNPVTMNK [compound 207], the Elispot reactive result (IFNγ ELISpot, peptide tested) is on record as “No”.
On to “FLADSGIDPV [WDTC1, WDTC1 neoAg peptide, HLA-A*02:01 restricted]”, for which the “ELISpot IFNγ reactivity (immunogenicity) of individual peptides” value is recorded as “most reactive (immunogenic); also recorded: immunogenic”.
Turning to FLAPCNFYL [compound 16], the Elispot reactive result (IFNγ ELISpot, peptide tested) is on record as “No”.
For the substance FLATSGIDPV [compound 44], the “ELISPOT result for peptides marked Tested with ELISPOT (Yes/No)” value under setting [4] is listed as “Yes”. In addition, the Elispot reactive result is listed as “Yes” under setting [2] and “Yes” under setting [5].
As to FLIDDNFKV, the Elispot reactive result under setting [3] is “yes”.
With FLIDDNFKV [SEQ ID NO 10], the “ELISpot IFNγ reactivity (immunogenicity) of individual peptides” value (listed as TTLL10) is given as “most reactive (immunogenic); also recorded: immunogenic”.
Consider FLIDDNFKV [compound 10], for which the Elispot reactive result is, setting by setting: (IFNγ ELISpot, peptide tested) “Yes”; under setting [5], “Yes”.
Regarding FLMDGFDEL [compound 11], the Elispot reactive entry (IFNγ ELISpot, peptide tested) is “No”.
For FLQEVFQA [compound 5], under setting [4], the “ELISPOT result (positive Yes/No) for peptides marked Tested” value was “No”.
On to FLWNSLLAV [compound 12], for which the Elispot reactive entry (IFNγ ELISpot, peptide tested) is recorded as “No”.
Consider FMNSTVFHV [compound 3], for which the “ELISPOT result for peptides marked Tested with ELISPOT (Yes/No)” value under setting [4] is recorded as “No”.
In the case of FQVHFLKSGGLPLVL, the Elispot reactive result under setting [3] is recorded as “yes”.
As for FQVHFLKSGGLPLVL [compound 221], the Elispot reactive result runs as follows: under setting [1], “Yes”; under setting [5], “Yes”.
On to GLLHAVQEKL [compound 165], for which, under setting [4], the “ELISPOT result (positive Yes/No) for peptides marked Tested” value is given as “No”.
For GMVPLIIPV [compound 116], under setting [2], the Elispot reactive entry is listed as “No”.
For HNVQGFHPY [compound 178], the “ELISPOT result (positive Yes/No) for peptides marked Tested” value under setting [4] is “No”.
HPARHLCRL [compound 208]: the Elispot reactive result (IFNγ ELISpot, peptide tested) is recorded as “No”.
The same measure, in the same setting: under HPPPPCLLLL [compound 217] stands “No”.
Turning to HSWRFCTHIR [compound 154], the “ELISPOT result (positive Yes/No) for peptides marked Tested” value under setting [4] is on record as “No”.
On the same count and under the same terms, for HTCKVCVSF [compound 176] the value was “No”; for IAFSQLIGM [compound 167], “No”.
On to IAQPSTSSL [compound 28], for which the Elispot reactive entry is “No” under setting [1] and “No” under setting [2].
For the substance ILFFFSSK [compound 175], the “ELISPOT result (positive Yes/No) for peptides marked Tested” value under setting [4] was “No”.
In the case of IQKSWTATTY, the Elispot reactive result under setting [3] is on record as “yes”.
For the substance IQKSWTATTY [compound 39], the Elispot reactive entry runs as follows: under setting [1], “Yes”; under setting [5], “Yes”.
For the substance KADQSESSL [compound 123], the Elispot reactive result under setting [2] was “No”.
